Columns and labels:
βarr1 = molecular target: T1, βarr1 (Homo sapiens, UniProt P49407, C125S/C140L/C150V/C242V/C251V/C269S/C59V/D390C); test: 19F NMR titration of V2Rpp or PIP2 into βarr1 (activation); type: biochemical; settings: V2Rpp up to 1.2:1, PIP2 up to 3.0:1 molar ratio
T1 construct: we started from a full-length functional cysteine-less βarr1 construct[20]; 6xHis-tag with SSG linker and thrombin cleavage site (N, cleaved yes); made in house; host or cells: E. coli BL21(DE3)
Description: All ^19F NMR spectra were recorded at 298 K using a Bruker AVANCE III HD 800 MHz spectrometer equipped with a ^1H-^19F/^13C/^15N TCI triple resonance cryogenic probe. All data were acquired and processed using the Bruker Topspin 4.2.0 software. For all 1D ^19F NMR experiments, the traditional one-pulse sequence was used. The carrier frequency was set to −68.0 ppm and the spectra were recorded with 4k points and a spectral width of 15,000 Hz. Because accurate calibration of the 90° excitation pulse length for individual samples is not practical due to the low protein concentrations, we used the 90° pulse length calibrated from a standard sample (0.05% Trifluoro-toluene in CDCl3) for all βarr1 samples. […] Therefore, all the ^19F experiments were conducted with a 100 ms relaxation delay, and acquired using 100,000–200,000 scans depending on the sample condition, yielding a signal-to-noise (S/N) ratio of approximately 50. […]
(§1) All NMR data were analyzed using the MestraNova 12.0.0 software (https://mnova.pl). […] Peak intensities, integrated peak area and linewidths were determined based on the fitted results. […]
(c) Estimation of the V2Rpp-βarr1 binding affinity based on peak intensity changes of the D390C site of βarr1 titrated with V2Rpp. […] The values of θ were calculated as by θ = V-,⁄(V-. + V-,), in which VS1 and VS2 correspond to the volume integrals of the peaks of S1 and S2 states, respectively. […]

[1] = test system: βarr1-ΔCT (residues 1–382); test: 19F NMR (1D and CEST) of CT-truncated construct; type: biochemical, human; settings: E206C site; PIP2 added to pre-activated ΔCT state
Source text: The cysteine-less mutant (C59V/C125S/C140L/C150V/C242V/C251V/C269S) of the long splice variant of human βarr1 was used for introduction of single site cysteine mutation for ^19F labeling. The sequence was codon-optimized for expression in Escherichia coli and cloned into a pET-28a(+) vector (Novagen), with an N-terminal 6xHis-tag, followed by an SSG linker and a thrombin cleavage site. All mutants, including the 1–382 (βarr1-ΔCT) and 1–395 truncation constructs, were generated using site-directed mutagenesis kits (Thermo Fisher). Primer sequences for generating the mutants are listed in Supplementary Table 4.
The ^19F-labeled βarr1 was diluted to 50 μM using buffer E before incubation with peptides or PIP2. The V2Rpp, β2AR-GRK2pp/GRK6pp or PIP2 were added at 1.2-fold, 3-fold, and 1.5-fold molar ratio excess to the protein, respectively. […]
All ^19F NMR spectra were recorded at 298 K using a Bruker AVANCE III HD 800 MHz spectrometer equipped with a ^1H-^19F/^13C/^15N TCI triple resonance cryogenic probe. […] The carrier frequency was set to −68.0 ppm and the spectra were recorded with 4k points and a spectral width of 15,000 Hz. […]
as §1

T1 sequence (P49407 whole entry C59V/C125S/C140L/C150V/C242V/C251V/C269S/D390C): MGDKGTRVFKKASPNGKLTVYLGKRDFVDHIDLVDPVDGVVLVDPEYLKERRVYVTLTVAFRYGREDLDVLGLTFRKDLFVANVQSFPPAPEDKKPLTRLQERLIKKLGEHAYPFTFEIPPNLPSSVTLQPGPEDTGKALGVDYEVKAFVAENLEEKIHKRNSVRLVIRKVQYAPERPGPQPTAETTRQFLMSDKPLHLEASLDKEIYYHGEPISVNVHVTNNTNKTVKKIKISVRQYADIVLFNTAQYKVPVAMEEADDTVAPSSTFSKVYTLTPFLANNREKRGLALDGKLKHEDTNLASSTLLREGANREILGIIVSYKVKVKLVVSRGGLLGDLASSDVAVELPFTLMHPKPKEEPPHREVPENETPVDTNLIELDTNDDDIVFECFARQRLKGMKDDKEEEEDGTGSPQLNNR

CCCCCCCC(=O)OC[C@H](COP(=O)(O)O[C@@H]1[C@H](O)[C@H](O)[C@@H](OP(=O)(O)O)[C@H](OP(=O)(O)O)[C@H]1O)OC(=O)CCCCCCC [PIP2, diC8-PI(4,5)P2]
Activation of βarr1 at D390C on titration (βarr1; D390C site): minimally affects | Activation of βarr1 at H295C on titration (βarr1; H295C site): partially activates | Active S2 conformation [1]: increases the active S2 conformation
